Laboratory results reported in ChEMBL document CHEMBL5523679, “Discovery of 1,2,3-triazole incorporated indole-piperazines as potent antitubercular agents: Design, synthesis, in vitro biological evaluation, molecular docking and ADME studies” (Bioorg Med Chem, 2024).

Tests used:
Format in all cases: functional
[1] = system: Mycobacterium tuberculosis; test: Antimycobacterial activity against Mycobacterium tuberculosis H37Rv assessed as bacterial growth inhibition by microplate Alamar blue assay
Pseudomonas aeruginosa [2] = test: Antibacterial activity against Pseudomonas aeruginosa assessed as inhibition zone at 75 ug/ml by diffusion method; settings: read-out: IZ
Escherichia coli [3] = test: Antibacterial activity against Escherichia coli assessed as inhibition zone at 50 ug/ml by diffusion method; settings: read-out: IZ
Staphylococcus aureus [4] = test: Antibacterial activity against Staphylococcus aureus assessed as inhibition zone at 50 ug/ml by diffusion method; settings: read-out: IZ
Pseudomonas aeruginosa [5] = test: Antibacterial activity against Pseudomonas aeruginosa assessed as inhibition zone at 50 ug/ml by diffusion method; settings: read-out: IZ
Staphylococcus aureus [6] = test: Antibacterial activity against Staphylococcus aureus assessed as inhibition zone at 75 ug/ml by diffusion method; settings: read-out: IZ
Escherichia coli [7] = test: Antibacterial activity against Escherichia coli assessed as inhibition zone at 75 ug/ml by diffusion method; settings: read-out: IZ
Staphylococcus aureus [8] = test: Antibacterial activity against Staphylococcus aureus assessed as inhibition zone at 25 ug/ml by diffusion method; settings: read-out: IZ
Escherichia coli [9] = test: Antibacterial activity against Escherichia coli assessed as inhibition zone at 25 ug/ml by diffusion method; settings: read-out: IZ

SMILES | MIC [1] | zone of inhibition at 75 µg/mL (Pseudomonas aeruginosa [2]) | zone of inhibition at 50 µg/mL (Escherichia coli [3]) | zone of inhibition at 50 µg/mL (Staphylococcus aureus [4]) | zone of inhibition at 50 µg/mL (Pseudomonas aeruginosa [5]) | zone of inhibition at 75 µg/mL (Staphylococcus aureus [6]) | zone of inhibition at 75 µg/mL (Escherichia coli [7]) | zone of inhibition at 25 µg/mL (Staphylococcus aureus [8]) | zone of inhibition at 25 µg/mL (Escherichia coli [9])
O=C(CCc1c[nH]c2ccccc12)N1CCN(C(=O)c2ccccc2)CC1 | > 120 µM | 12 mm | 13 mm | 13 mm | 10 mm | 15 mm | 15 mm | – | –
O=C(Cc1cn(Cc2ccc(F)cc2)c2ccccc12)N1CCN(C(=O)c2ccccc2)CC1 | > 120 µM | 12 mm | 10 mm | 17 mm | 10 mm | 23 mm | 12 mm | 13 mm | –
NC(=O)c1cnccn1 [PYRAZINAMIDE] | 25.3 µM | – | – | – | – | – | – | – | –
O=C(CCc1c[nH]c2ccccc12)N1CCN(S(=O)(=O)c2ccc(Cl)cc2)CC1 | 57.8 µM | 10 mm | 8 mm | 10 mm | – | 13 mm | 10 mm | – | –
O=C(CCc1cn(Cc2cn(Cc3ccc(F)cc3)nn2)c2ccccc12)N1CCN(S(=O)(=O)c2ccc([N+](=O)[O-])cc2)CC1 | 39.6 µM | 12 mm | 18 mm | 12 mm | 10 mm | 20 mm | 20 mm | 6 mm | 15 mm
Cc1ccc(C(=O)N2CCN(C(=O)CCc3c[nH]c4ccccc34)CC2)cc1 | 66.6 µM | 15 mm | 13 mm | 13 mm | 10 mm | 15 mm | 15 mm | 10 mm | –
O=C(CCc1cn(Cc2cn(Cc3ccc(F)cc3)nn2)c2ccccc12)N1CCN(C(=O)c2ccc([N+](=O)[O-])cc2)CC1 | 21 µM | 13 mm | 19 mm | 13 mm | – | 20 mm | 20 mm | 10 mm | 15 mm
O=C(Cc1c[nH]c2ccccc12)N1CCN(S(=O)(=O)c2ccc(Cl)cc2)CC1 | 59.8 µM | 13 mm | 9 mm | 12 mm | 10 mm | 15 mm | 11 mm | 10 mm | 6 mm
O=C(Cc1c[nH]c2ccccc12)N1CCN(S(=O)(=O)c2ccc(F)cc2)CC1 | > 120 µM | 13 mm | 15 mm | 15 mm | 10 mm | 20 mm | 18 mm | 13 mm | –
O=C(Cc1c[nH]c2ccccc12)N1CCN(C(=O)c2ccc(F)cc2)CC1 | 68.4 µM | 10 mm | 15 mm | 13 mm | – | 20 mm | 18 mm | – | –
O=C(Cc1cn(Cc2ccc(F)cc2)c2ccccc12)N1CCN(S(=O)(=O)c2ccc(F)cc2)CC1 | 24.5 µM | 18 mm | 13 mm | 18 mm | – | 20 mm | 18 mm | 15 mm | –
O=C(CCc1cn(Cc2ccc(F)cc2)c2ccccc12)N1CCN(S(=O)(=O)c2ccc(Cl)cc2)CC1 | 23.1 µM | 17 mm | 15 mm | 18 mm | 13 mm | 23 mm | 18 mm | 15 mm | –
O=C(CCc1cn(Cc2cn(Cc3ccc(F)cc3)nn2)c2ccccc12)N1CCN(S(=O)(=O)c2ccccc2C(F)(F)F)CC1 | 38.2 µM | 12 mm | 22 mm | 12 mm | 10 mm | 20 mm | 20 mm | 10 mm | 15 mm
NNC(=O)c1ccncc1 [ISONIAZID] | 11.7 µM | – | – | – | – | – | – | – | –
